Where a SMILES comes first, the peptide text is derived from it.
Key:
dengue virus type 2 [1] = experiment: Antiviral activity against Dengue virus 2 infected in BHK21 cells assessed as reduction in virus replication after 72 hrs by renilla luciferase reporter gene assay; assay type: functional, organism-based; settings: BHK-21, 72 h
Genome polyprotein [2] = target: T1, Genome polyprotein (dengue virus type 2, UniProt P29990); experiment: Inhibition of Dengue virus 2 NS3 helicase incubated for 2 mins followed by ATP addition
Target sequence in this assay (P29990 1476-2093 limits assumed): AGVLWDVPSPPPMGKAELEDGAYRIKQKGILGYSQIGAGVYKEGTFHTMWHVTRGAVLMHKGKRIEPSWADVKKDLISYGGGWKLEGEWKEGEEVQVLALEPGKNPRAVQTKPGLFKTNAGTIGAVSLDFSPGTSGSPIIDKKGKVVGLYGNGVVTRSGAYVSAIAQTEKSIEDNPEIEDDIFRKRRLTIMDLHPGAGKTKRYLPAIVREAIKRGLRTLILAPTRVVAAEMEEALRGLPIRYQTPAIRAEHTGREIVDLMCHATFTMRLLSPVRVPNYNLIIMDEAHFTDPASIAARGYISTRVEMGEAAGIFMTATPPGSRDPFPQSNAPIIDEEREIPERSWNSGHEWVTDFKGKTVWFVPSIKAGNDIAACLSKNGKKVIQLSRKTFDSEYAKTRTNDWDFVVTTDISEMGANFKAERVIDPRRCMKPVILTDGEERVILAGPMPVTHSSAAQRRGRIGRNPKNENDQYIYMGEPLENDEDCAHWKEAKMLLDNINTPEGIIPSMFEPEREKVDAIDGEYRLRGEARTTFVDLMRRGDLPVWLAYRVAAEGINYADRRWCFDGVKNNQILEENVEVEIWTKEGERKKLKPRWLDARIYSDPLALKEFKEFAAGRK

Genome polyprotein [3] = target: T1, Genome polyprotein; experiment: Inhibition of RNA unwinding activity of thioredoxin/His6 tagged Dengue virus 2 TSV01 NS3 helicase (171 to 618 residues) expressed in Escherichia coli Rosetta (DE3) using Cy5-MBHA as substrate by fluorescence assay
Target sequence in this assay (P29990 1476-2093 limits assumed): as above

[4] = Selectivity index, ratio of CC50 for BHK21 cells to EC50 for Dengue virus 2 infected in BHK21 cells; assay type: toxicity, cell-based; settings: hamster, read-out: Ratio CC50/EC50
[5] = Inhibition of Dengue virus guanine N-7 methyltransferase using RNA substrate after 20 mins in presence of [methyl-3H]-AdoMet by microbeta counting analysis
Nonstructural protein 5 = Nonstructural protein 5 (Dengue virus, UniProt V5TFZ2); experiment: Inhibition of Dengue virus ribose 2'-O methyltransferase using RNA substrate after 20 mins in presence of [methyl-3H]-AdoMet by microbeta counting analysis
Sequence of Nonstructural protein 5 (V5TFZ2 whole entry): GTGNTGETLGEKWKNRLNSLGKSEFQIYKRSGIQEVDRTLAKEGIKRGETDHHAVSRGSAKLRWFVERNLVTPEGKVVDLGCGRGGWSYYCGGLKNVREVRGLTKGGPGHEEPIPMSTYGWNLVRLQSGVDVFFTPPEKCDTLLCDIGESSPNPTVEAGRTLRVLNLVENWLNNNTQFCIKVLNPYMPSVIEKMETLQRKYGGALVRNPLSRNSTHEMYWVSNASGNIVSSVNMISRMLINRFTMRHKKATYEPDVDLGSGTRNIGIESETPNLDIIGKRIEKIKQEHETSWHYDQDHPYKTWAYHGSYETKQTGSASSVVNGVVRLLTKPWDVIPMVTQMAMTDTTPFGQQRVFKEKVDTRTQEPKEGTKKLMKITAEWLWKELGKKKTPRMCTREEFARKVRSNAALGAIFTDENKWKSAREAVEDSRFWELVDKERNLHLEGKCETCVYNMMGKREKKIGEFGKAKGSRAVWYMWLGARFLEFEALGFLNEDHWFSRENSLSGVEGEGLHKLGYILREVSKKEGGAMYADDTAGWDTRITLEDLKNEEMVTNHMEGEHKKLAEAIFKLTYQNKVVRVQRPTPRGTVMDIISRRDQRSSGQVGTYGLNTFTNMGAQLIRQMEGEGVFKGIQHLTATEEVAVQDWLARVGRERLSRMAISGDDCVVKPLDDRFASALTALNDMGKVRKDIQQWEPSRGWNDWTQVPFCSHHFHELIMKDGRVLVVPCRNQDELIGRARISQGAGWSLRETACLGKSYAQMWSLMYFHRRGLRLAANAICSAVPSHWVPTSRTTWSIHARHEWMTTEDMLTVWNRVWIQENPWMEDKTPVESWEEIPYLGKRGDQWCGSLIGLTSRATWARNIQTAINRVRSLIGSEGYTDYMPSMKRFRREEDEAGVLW

[6] = Cytotoxicity against human HuH7 cells assessed as cell viability after 48 hrs by CellTiter Glo assay; assay type: cell-based, Huh-7
dengue virus type 2 [7] = experiment: Antiviral activity against Dengue virus 2 NGC infected in human HuH7 cells assessed as reduction in virus replication after 48 hrs by renilla luciferase reporter gene assay; assay type: functional, organism-based; settings: Huh-7, 48 h
dengue virus type 3 [8] = experiment: Antiviral activity against Dengue virus 3 H87 VR-1256 infected in african green monkey Vero cells assessed as reduction in viral titer after 48 hrs by plaque assay; assay type: functional, organism-based; settings: H87 VR-1256, Vero
dengue virus type 1 [9] = experiment: Antiviral activity against Dengue virus 1 TH-Sman VR-344 infected in african green monkey Vero cells assessed as reduction in viral titer after 48 hrs by plaque assay; assay type: functional, organism-based; settings: TH-Sman VR-344, Vero
dengue virus type 4 [10] = experiment: Antiviral activity against Dengue virus 4 H241 VR-1257 infected in african green monkey Vero cells assessed as reduction in viral titer after 48 hrs by plaque assay; assay type: functional, organism-based; settings: H241 VR-1257, Vero
dengue virus type 2 [11] = experiment: Antiviral activity against Dengue virus 2 NGC VR-1255 infected in african green monkey Vero cells assessed as reduction in viral titer after 48 hrs by plaque assay; assay type: functional, organism-based; settings: NGC VR-1255, Vero
Genome polyprotein [12] = target: T1, Genome polyprotein; experiment: Inhibition of recombinant Dengue virus type 2 NS2B-NS3 protease expressed in Escherichia coli C41 cells using GRR-AMC as substrate after 15 mins by fluorescence assay
Target sequence in this assay (P29990 1346-1475 limits assumed): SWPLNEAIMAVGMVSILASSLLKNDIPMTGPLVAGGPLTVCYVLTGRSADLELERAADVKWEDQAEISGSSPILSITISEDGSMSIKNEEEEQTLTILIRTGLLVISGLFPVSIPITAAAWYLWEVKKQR
Target sequence in this assay (P29990 1476-2093 limits assumed): as the sequence (P29990 1476-2093 limits assumed) above

dengue virus type 2 [13] = experiment: Antiviral activity against Dengue virus 2 16681 infected in human HuH7 cells after 72 hrs by indirect immunofluorescent flow cytometry; assay type: functional, organism-based; settings: Dengue virus, 16681, Huh-7, 72 h
dengue virus type 2 [14] = experiment: Antiviral activity against Dengue virus 2 NGC infected in african green monkey Vero cells assessed as reduction in viral titer after 48 hrs by plaque assay; assay type: functional, organism-based
dengue virus type 2 [15] = experiment: Antiviral activity against Dengue virus 2 NGC infected through intraperitoneal route in AG129 mouse assessed as reduction of viral load in spleen at 50 mg/kg, ip bid measured on day 3 by plaque assay relative to vehicle-treated control; assay type: functional
[16] = Oral bioavailability in AG129 mouse plasma at 50 mg/kg/day after 1 to 24 hrs by LC-MS/MS; assay type: ADME, organism-based
dengue virus type 2 [17] = experiment: Antiviral activity against Dengue virus 2 NGC infected through intraperitoneal route in AG129 mouse assessed as reduction in peak plasma viremia at 50 mg/kg, ip bid measured on day 3 by plaque assay relative to vehicle-treated control; assay type: functional
dengue virus type 2 [18] = experiment: Antiviral activity against Dengue virus 2 NGC infected through intraperitoneal route in AG129 mouse assessed as reduction of viral load in liver at 50 mg/kg, ip bid measured on day 3 by plaque assay relative to vehicle-treated control; assay type: functional
dengue virus type 2 [19] = experiment: Antiviral activity against Dengue virus 2 NGC infected in BHK21 cells after 48 hrs by plaque reduction assay; assay type: functional, organism-based; settings: BHK-21, 48 h
dengue virus type 2 [20] = experiment: Antiviral activity against Dengue virus 2 NGC infected in human K562 cells assessed as inhibition in live viral replication after 48 hrs by plaque assay; assay type: functional, organism-based; settings: K562, 48 h
dengue virus type 2 [21] = experiment: Antiviral activity against Dengue virus 2 NGC infected in human A549 cells assessed as reduction in virus replication after 48 hrs by renilla luciferase reporter gene assay; assay type: functional, organism-based; settings: A549, 48 h
dengue virus type 4 [22] = experiment: Antiviral activity against Dengue virus 4 8124 infected in african green monkey Vero cells assessed as inhibition of viral yield after 48 hrs; assay type: functional, organism-based; settings: Dengue virus, 8124, Vero
dengue virus type 1 [23] = experiment: Antiviral activity against Dengue virus 1 Hawaii infected in african green monkey Vero cells assessed as inhibition of viral yield after 48 hrs; assay type: functional, organism-based
Junin virus = experiment: Antiviral activity against Junin virus IV4454 infected in african green monkey Vero cells assessed as inhibition of viral yield after 48 hrs; assay type: functional, organism-based; settings: Mammarenavirus juninense
dengue virus type 2 [24] = experiment: Antiviral activity against Dengue virus 2 NGC infected in african green monkey Vero cells assessed as inhibition of viral yield after 48 hrs; assay type: functional, organism-based
dengue virus type 3 [25] = experiment: Antiviral activity against Dengue virus 3 H87 infected in african green monkey Vero cells assessed as inhibition of viral yield after 48 hrs; assay type: functional, organism-based
dengue virus type 2 [26] = experiment: Antiviral activity against Dengue virus 2 NGC infected in human HuH7 cells assessed as reduction in viral titer after 24 hrs; assay type: functional; settings: Huh-7, 24 h
dengue virus type 2 [27] = experiment: Antiviral activity against Dengue virus 2 3295 infected in BHK21 cells after 48 hrs by CFI assay; assay type: functional, organism-based; settings: Dengue virus, 3295, BHK-21, 48 h
dengue virus type 2 [28] = experiment: Antiviral activity against Dengue virus 2 infected in BHK21 cells assessed after 3 to 5 days by crystal violet staining based plaque assay; assay type: functional, organism-based; settings: BHK-21

## Cc1ccc2nc(-c3ccc4nc(-c5ccc(NC(=O)c6ccc7nc(-c8ccc(N)cc8)sc7c6)cc5)sc4c3)sc2c1S(=O)(=O)O
Dengue virus type 2 [1]
  EC50: 7100 nM
Genome polyprotein [2]
  IC50: 500 nM
Genome polyprotein [3]
  IC50: 1500 nM

## Cc1cc(N2C(=O)C(O)=C(C(=O)c3ccc(C)o3)C2c2cc(Cl)cc(Cl)c2)no1 (centres undefined)
Dengue virus type 2 [1]
  EC50: 36000 nM
[4]
  selectivity ratio: 4.5

## Nc1ncnc2c1ncn2[C@@H]1O[C@H](CSCC[C@H](N)C(=O)O)[C@@H](O)[C@H]1O [S-ADENOSYLHOMOCYSTEINE]
[5]
  IC50: 1770 nM
Nonstructural protein 5
  IC50: 490 nM

## CCN(CC)CCO[C@H]1CC[C@@]2(C)C(=CC[C@@H]3[C@@H]2CC[C@]2(C)C(=O)CC[C@@H]32)C1
[6]
  CC50 at 48 h: 34400 nM
Dengue virus type 2 [7]
  EC50: 2900 nM

## NC(=O)C1(N2CCCCC2)CCN(C(=O)CSc2nc3ccccc3o2)CC1
Dengue virus type 3 [8]
  EC50: 203 to 272 nM
Dengue virus type 1 [9]
  EC50: 203 to 272 nM
Dengue virus type 4 [10]
  EC50: 203 to 272 nM
Dengue virus type 2 [11]
  EC50: 203 to 272 nM

## CC(=O)N[C@@H](CCCNC(=N)N)C(=O)N[C@H](C(=O)N[C@@H](CO)C(=O)N[C@@H](CCCCN)C(=O)N[C@@H](CCCCN)C(=O)N[C@@H](CCCNC(=N)N)C(N)=O)[C@@H](C)O (Ac-RTSKKR-NH2)
Genome polyprotein [12]
  Ki: 12000 nM

## COc1c(C)c2c(c(O)c1C/C=C(\C)CCC(=O)O)C(=O)OC2 [MYCOPHENOLIC ACID]
Dengue virus type 2 [13]
  EC50: 1900 nM

## Nc1c(C(=O)Nc2nnc(-c3ccccc3)s2)sc2nc3c(cc12)CCCCC3
Dengue virus type 2 [14]
  EC50: 16 nM
  EC90: 125 nM
Dengue virus type 2 [15]
  fold change (FC): 3
[16]
  bioavailability: 9.1%
Dengue virus type 2 [17]
  fold change (FC): 52
Dengue virus type 2 [18]
  fold change (FC): 20

## OC[C@@H]1[C@@H](O)[C@H](O)[C@@H](O)CN1CCCCCC1(O)CCCCC1
Dengue virus type 2 [19]
  EC50: 2000 nM

## C=C(CC[C@]12O[C@H](C(=O)O)[C@@](O)(C(=O)O)[C@](C(=O)O)(O1)[C@H](OC(=O)/C=C/[C@@H](C)C[C@@H](C)CC)[C@H]2O)[C@@H](OC(C)=O)[C@H](C)Cc1ccccc1 [ZARAGOZIC ACIDS A]
Dengue virus type 2 [20]
  EC50: 8300 nM

## CC[C@H](C)C(=O)O[C@H]1CCC=C2C=C[C@H](C)[C@H](CC[C@@H]3C[C@@H](O)CC(=O)O3)[C@H]21 [MEVASTATIN]
Dengue virus type 2 [21]
  EC50: 1820 to 8750 nM

## C=CCn1c2cc(Cl)ccc2c(=O)c2cccc(OC)c21
Dengue virus type 4 [22]
  EC50: 19900 nM
Dengue virus type 1 [23]
  EC50: 8300 to 15900 nM
Junin virus
  EC50: 2500 to 5500 nM
Dengue virus type 2 [24]
  EC50: 2500 to 5500 nM
Dengue virus type 3 [25]
  EC50: 8300 to 15900 nM

## CCCCCCCCCN1C[C@H](O)[C@@H](O)[C@H](O)[C@H]1CO
Dengue virus type 2 [19]
  EC50: 1000 nM

## NC(=O)c1ncn([C@@H]2O[C@H](CO)[C@@H](O)[C@H]2O)n1 [RIBAVIRIN]
Dengue virus type 2 [13]
  EC50: 40000 nM

## CN1CCN(CCOc2cc(OC3CCOCC3)c3c(Nc4c(Cl)ccc5c4OCO5)ncnc3c2)CC1 [SARACATINIB]
Dengue virus type 2 [26]
  EC90: 12200 nM

## O[C@H]1[C@H](O)[C@@H](O)CN2CC[C@H](O)[C@H]12 [CASTANOSPERMINE]
Dengue virus type 2 [27]
  EC50: 28000 nM

## CCN(CC)CCCC(C)Nc1ccnc2cc(Cl)ccc12 (centres undefined) [CHLOROQUINE]
Dengue virus type 2 [28]
  EC90: 5040 nM
